Values joined by “and” are separate entries in the source; they are usually repeats but may differ in a detail not shown here. Equal values may be shown once.
Tests used:
[1] = Bench-top (short-term) stability test in human plasma, 8 hours at ambient temperature; format: physicochemical; details: for Change in concentration [%]: 8 h at RT vs Baseline; for Accuracy: single QC replicate
From the text: (§1) Each analyte had to be stable in human plasma for at least three freeze-thaw cycles (for repeated sample preparations) and at ambient temperature for at least eight hours (maximal duration of sample preparation). Measured samples should be stable for a second injection when the first analytical run was not valid. The analytes had to be stable in the matrix at the intended storage temperatures and study duration.
(§2) An analyte was considered stable at one of the above tests when no increase or decrease of the analyte concentration of more than 15% for the mean of at least three analyzed QC samples at low, medium and at high concentration was observed.
Seven of each LLOQ, QCLOW, QCMID, QCHIGH, and ULOQ samples in human plasma were thawed at ambient temperature and kept at this temperature for 8 hours. Afterwards, the samples were worked up and analyzed. The values of the concentrations in the “short-term” samples were compared with freshly processed QC samples. Concentrations were calculated based on two freshly prepared CAL sets measured at the beginning and the end of the validation run.

[2] = Clinical application: plasma concentration-time profile of LSD and O-H-LSD after a single oral 5 μg LSD dose in healthy volunteers; format: in vivo, human; details: three healthy volunteers
Method: To examine the application of the developed method, LSD and O-H-LSD concentrations were quantified in plasma samples of three healthy volunteers receiving a single oral dose of 5 μg. This corresponds to a very low LSD dose, used in LSD microdosing clinical trials (Holze et al., 2021a). The study was conducted in accordance with the Declaration of Helsinki and approved by the Medical Ethics Committee of the Academic Hospital of Maastricht and Maastricht University. The use of LSD in humans was authorized by the Dutch Drug Enforcement Administration. All volunteers provided written informed consent prior to study participation. To establish concentration time profiles, blood samples were collected in lithium heparin coated tubes at the following time points: 0, 0.5, 1, 1.5, 2, 3, 4, 6 after treatment. Blood samples were centrifuged, and plasma was frozen at −20° C. until analysis.
The application of the method was assessed by analyzing the PK of LSD and O-H-LSD in three healthy volunteers treated with an oral dose of 5 μg LSD base (FIG. 5). An oral dose of 5 μg LSD base in ethanol (Holze et al., 2021) was administered to three healthy volunteers. Plasma concentrations of LSD and O-H-LSD were quantified before and up to six hours post-treatment. […] Mean values and the standard deviations are illustrated.
The maximal plasma level of LSD and O-H-LSD was on average 178 pg/ml (SD: 30.6 pg/ml) and 10.4 pg/ml (SD: 2.59 pg/ml), respectively. LSD reached Tmax approximately after 1 hour post-treatment, whereas O-H-LSD peaked after 3 hours. The LSD concentrations measured after a dose of only 5 μg were approximately 7 to 18 times higher than the methods limit of quantification. Thus, the PK of LSD could straightforwardly be established also for very low so-called microdoses (Kuypers et al., 2019). In the case of O-H-LSD, a larger amount of plasma sample was required to determine the plasma concentration time profile after a dose of 5 μg. Three times more plasma was utilized (150 instead of 50 μl), which was extracted as outlined above using however three-fold more acetonitrile for the extraction. Sensitivity was increased by evaporating the extract and reconstituting the residue in a mixture of 150 μl of mobile phase A and mobile phase B (9/1 v/v). […] In future, it will also be considered to inject a larger amount of extract, which is in a first step retained and concentrated on a trapping column. In a second step, the direction of the flow is inverted and so that the sample can be loaded and eluted on the analytical column. This column switching procedure, will increase the sensitivity in the event that the sample can be retained on the trap column. Importantly, the time-consuming solvent evaporation step can thereby be avoided.

[3] = Reinjection reproducibility of worked-up plasma samples (overnight at 10° C. in autosampler; 1 week at −20° C.); format: physicochemical, human; details: for Change in concentration: 1 night at 10° C. in the autosampler vs Baseline; for Change in concentration [%]: 8 days at −20° C. vs Baseline; for Accuracy: single QC replicate
From the text: as §1, §2
Worked-up and measured Cal and QC samples (prepared in human plasma) of a valid run were repeatedly analyzed. Reinjection was performed after overnight storage at 10° C. (autosampler) and after 1-week storage at −20° C. The run was checked according to the acceptance criteria for validation runs. The calculated mean values for QC samples were compared between the original and reinjected run.

[4] = LLOQ: 10 pg/ml, reinjection after 8 days at −20° C.
[5] = QCHIGH: 1000 pg/ml, reinjection after 8 days at −20° C.
[6] = QCLOW: 25 pg/ml, reinjection after 8 days at −20° C.
[7] = QCMID: 100 pg/ml, reinjection after 8 days at −20° C.
[8] = ULOQ: 10000 pg/ml, reinjection after 8 days at −20° C.

Structure (SMILES): CCN(CC)C(=O)[C@@H]1C=C2c3cccc4[nH]cc(c34)C[C@H]2N(C)C1 [LSD, Lysergic acid diethylamide]
- Accuracy, Intra-assay Mean ([1]; LLOQ: 10 pg/ml, 8 h at RT): 88.3%
- Change in concentration [%] ([1]; LLOQ: 10 pg/ml): 3.81%
- Accuracy ([1]; LLOQ: 10 pg/ml, 8 h at RT): 91.6% and 85.6% and 74.7* % and 83.10% and 92% and 86.1% and 91.7%
- Accuracy, Intra-assay Mean ([1]; LLOQ: 10 pg/ml, Baseline): 91.8%
- Accuracy ([1]; LLOQ: 10 pg/ml, Baseline): 96.6% and 95.7% and 83.2%
- Accuracy, Intra-assay Mean ([1]; QCHIGH: 1000 pg/ml, 8 h at RT): 97.8%
- Change in concentration [%] ([1]; QCHIGH: 1000 pg/ml): 1.99%
- Accuracy ([1]; QCHIGH: 1000 pg/ml, 8 h at RT): 98.2% and 98.3% and 97.2% and 96.8% and 96.2% and 97.7% and 100%
- Accuracy, Intra-assay Mean ([1]; QCHIGH: 1000 pg/ml, Baseline): 95.9%
- Accuracy ([1]; QCHIGH: 1000 pg/ml, Baseline): 96.9% and 96.4% and 94.3%
- Accuracy, Intra-assay Mean ([1]; QCLOW: 25 pg/ml, 8 h at RT): 92.7%
- Change in concentration [%] ([1]; QCLOW: 25 pg/ml): 0.0885%
- Accuracy ([1]; QCLOW: 25 pg/ml, 8 h at RT): 96% and 92.9% and 94.5% and 87.6% and 94.4% and 93.3% and 90%
- Accuracy, Intra-assay Mean ([1]; QCLOW: 25 pg/ml, Baseline): 92.6%
- Accuracy ([1]; QCLOW: 25 pg/ml, Baseline): 94% and 93.4% and 90.5%
- Accuracy, Intra-assay Mean ([1]; QCMID: 100 pg/ml, 8 h at RT): 96%
- Change in concentration [%] ([1]; QCMID: 100 pg/ml): −1.51%
- Accuracy ([1]; QCMID: 100 pg/ml, 8 h at RT): 95.9% (2×) and 95.8% and 94.2% and 91.1% and 99.2% and 99.7%
- Accuracy, Intra-assay Mean ([1]; QCMID: 100 pg/ml, Baseline): 97.5%
- Accuracy ([1]; QCMID: 100 pg/ml, Baseline): 101% and 94.3% and 97.4%
- Accuracy, Intra-assay Mean ([1]; ULOQ: 10000 pg/ml, 8 h at RT): 94.9%
- Change in concentration [%] ([1]; ULOQ: 10000 pg/ml): −1.74%
- Accuracy ([1]; ULOQ: 10000 pg/ml, 8 h at RT): 94.7% and 93.4% and 94.6% and 96.9% and 95.4% and 95% and 94.3%
- Accuracy, Intra-assay Mean ([1]; ULOQ: 10000 pg/ml, Baseline): 96.6%
- Accuracy ([1]; ULOQ: 10000 pg/ml, Baseline): 94.7% and 94.9% and 100%
- Change in plasma concentration after 8 hours storage at room temperature ([1]; human plasma QC samples, 8 hours at room temperature, vs freshly processed QC): ≤ 3.81%
- Tmax ([2]; human, 5 ug, single oral dose of 5 μg LSD base, read-out: Tmax (time of peak plasma level post-treatment)): ~1 h
- maximal plasma level (average) ([2]; single oral dose of 5 μg LSD base in ethanol, LC-MS/MS, O-H-LSD measured as metabolite using 150 μl plasma): 178 pg/mL
- Change in concentration ([3]; LLOQ: 10 pg/ml): 1.09%
- Change in concentration ([3]; QCHIGH: 1000 pg/ml): −0.451%
- Change in concentration ([3]; QCLOW: 25 pg/ml): −0.0195%
- Change in concentration ([3]; QCMID: 100 pg/ml): 2.3%
- Change in concentration ([3]; ULOQ: 10000 pg/ml): 0.383%
- Change in concentration [%] ([3]; LLOQ: 10 pg/ml): −1.26%
- Accuracy, Intra-assay Mean ([3]; LLOQ: 10 pg/ml, Baseline): 96.6%
- Accuracy ([3]; LLOQ: 10 pg/ml, Baseline): 92.5% and 95% and 76.3* % and 91.3% and 98% and 109% and 93.7%
- Accuracy, Intra-assay Mean [3, 4]: 95.4%
- Accuracy [3, 4]: 104% and 97.5% and 86% and 95.3% and 100% and 94.7% and 90.3%
- Change in concentration [%] ([3]; QCHIGH: 1000 pg/ml): −0.333%
- Accuracy, Intra-assay Mean ([3]; QCHIGH: 1000 pg/ml, Baseline): 100%
- Accuracy ([3]; QCHIGH: 1000 pg/ml, Baseline): 96.5% and 99.5% and 97.7% and 101% (3×) and 103%
- Accuracy, Intra-assay Mean [3, 5]: 99.7%
- Accuracy [3, 5]: 101% (2×) and 98.8% and 98.9% and 99.9% and 99.1% and 99.6%
- Change in concentration [%] ([3]; QCLOW: 25 pg/ml): −0.948%
- Accuracy, Intra-assay Mean ([3]; QCLOW: 25 pg/ml, Baseline): 101%
- Accuracy ([3]; QCLOW: 25 pg/ml, Baseline): 101% (2×) and 104% and 97.9% and 102% and 103% and 99.5%
- Accuracy, Intra-assay Mean [3, 6]: 100%
- Accuracy [3, 6]: 95.5% and 102% and 107% and 96.4% and 106% and 92% and 103%
- Change in concentration [%] ([3]; QCMID: 100 pg/ml): 1.02%
- Accuracy, Intra-assay Mean ([3]; QCMID: 100 pg/ml, Baseline): 101%
- Accuracy ([3]; QCMID: 100 pg/ml, Baseline): 101% (4×) and 102% and 96.6% and 107%
- Accuracy, Intra-assay Mean [3, 7]: 102%
- Accuracy [3, 7]: 101% and 103% (2×) and 102% (2×) and 99.9% and 105%
- Change in concentration [%] ([3]; ULOQ: 10000 pg/ml): −1.85%
- Accuracy, Intra-assay Mean ([3]; ULOQ: 10000 pg/ml, Baseline): 97.2%
- Accuracy ([3]; ULOQ: 10000 pg/ml, Baseline): 97.9% and 97.3% and 98.1% and 96.5% and 97.1% and 98.7% and 95%
- Accuracy, Intra-assay Mean [3, 8]: 95.4%
- Accuracy [3, 8]: 97.4% and 96.6% and 95.2% and 92.9% and 95.1% and 96.4% and 94.2%
- Deviations of the means of the QCs of the two runs (reinjection) after 8 days at −20° C. ([3]; worked-up human plasma samples, 8 days at −20° C.): −1.85% to +1.02
- Deviations of the means of the QCs of the two runs (reinjection) after overnight storage at 10° C. ([3]; worked-up human plasma samples, overnight at 10° C. in the autosampler): −0.451% to +2.3
